In patent US20060241301A1, “Urea derivatives and their use as tyrosinkinase inhibitors” (priority 2003, published 2006):

What was measured:
RAF = RAF kinase inhibition; assay type: biochemical
TIE-2 = TIE-2 (Homo sapiens, UniProt Q02763); assay: TIE-2 kinase flashplate assay (phosphorylation of poly(Glu, Tyr), 33P-ATP); assay type: biochemical; conditions: read-out: Inhibition by TIE-2 IC50
Experimental: The TIE-2 tests can be carried out, for example, analogously to the methods indicated in WO 02/44156.
The assay determines the inhibiting activity of the substances to be tested in the phosphorylation of the substrate poly(Glu, Tyr) by Tie-2 kinase in the presence of radioactive ^33P-ATP. The phosphorylated substrate binds to the surface of a “flashplate” microtitre plate during the incubation time. After removal of the reaction mixture, the microtitre plate is washed a number of times and the radioactivity on its surface is subsequently measured. An inhibiting effect of the substances to be measured results in lower radioactivity compared with an undisturbed enzymatic reaction.

Chain of TIE-2 (Q02763 23-1124, species assumed): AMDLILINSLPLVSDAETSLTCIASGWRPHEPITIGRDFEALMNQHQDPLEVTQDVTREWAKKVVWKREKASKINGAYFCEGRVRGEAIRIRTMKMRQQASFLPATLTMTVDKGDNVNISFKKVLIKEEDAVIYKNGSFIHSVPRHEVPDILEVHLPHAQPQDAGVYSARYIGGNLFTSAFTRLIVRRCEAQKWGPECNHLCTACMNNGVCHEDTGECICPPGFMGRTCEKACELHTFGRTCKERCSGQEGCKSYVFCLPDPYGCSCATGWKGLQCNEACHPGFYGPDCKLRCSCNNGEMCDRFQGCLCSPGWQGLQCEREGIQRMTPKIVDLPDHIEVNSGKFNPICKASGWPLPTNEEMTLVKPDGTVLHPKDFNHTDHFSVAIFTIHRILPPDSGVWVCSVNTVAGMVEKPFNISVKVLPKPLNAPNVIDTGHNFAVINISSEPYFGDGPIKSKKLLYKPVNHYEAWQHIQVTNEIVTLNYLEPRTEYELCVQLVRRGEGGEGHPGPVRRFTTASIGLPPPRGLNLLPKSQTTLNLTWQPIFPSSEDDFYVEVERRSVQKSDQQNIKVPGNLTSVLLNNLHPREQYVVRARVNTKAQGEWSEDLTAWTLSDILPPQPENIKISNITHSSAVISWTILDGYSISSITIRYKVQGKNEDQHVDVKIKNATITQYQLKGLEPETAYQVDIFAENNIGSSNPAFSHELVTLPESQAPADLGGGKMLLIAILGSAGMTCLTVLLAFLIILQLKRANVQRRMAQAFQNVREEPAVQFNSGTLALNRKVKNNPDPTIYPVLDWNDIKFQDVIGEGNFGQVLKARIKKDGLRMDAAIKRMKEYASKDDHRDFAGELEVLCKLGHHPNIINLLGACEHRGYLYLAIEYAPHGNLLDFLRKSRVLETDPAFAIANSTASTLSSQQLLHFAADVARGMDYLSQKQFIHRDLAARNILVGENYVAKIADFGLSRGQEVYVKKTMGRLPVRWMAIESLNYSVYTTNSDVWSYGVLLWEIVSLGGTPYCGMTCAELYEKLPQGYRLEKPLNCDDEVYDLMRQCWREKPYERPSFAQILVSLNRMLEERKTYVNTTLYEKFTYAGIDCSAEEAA

| IC50 (TIE-2) [nM] | Structure (SMILES) | IC50 (RAF) [nM] |
| --- | --- | --- |
| – | CNC(=O)c1cc(Oc2ccc(NC(=O)Nc3ccc(Cl)c(C(F)(F)F)c3)cc2)ccn1 | 264 |
| 57 | O=C(Nc1ccc(Oc2ccc3nsnc3c2)cc1)Nc1cc(C(F)(F)F)ccc1F [A1, 1-[4-(Benzo-1,2,5-thiadiazol-5-yloxy)phenyl]-3-(2-fluoro-5-trifluoromethylphenyl)urea] | 220 |
| 32 | CNC(=O)c1cc(Oc2ccc(NC(=O)Nc3cc(C(F)(F)F)ccc3F)cc2)ccn1 [No. 2, N-methyl-4-{4-[3-(fluorotrifluoromethylphenyl)ureido]phenoxy}pyridine-2-carboxamide] | – |
